According to patent publication US20240336632A1, “NOVEL COMPOUND COMPRISING ESTER GROUP AND USES THEREOF” (priority 2021, published 2024):

Key:
[1] = tested on: porcine liver esterase; experiment: Esterase enzymatic assay (radio-TLC cleavage); format: in vitro ADME; details: 37 C
Procedure: The in vitro metabolism studies were performed using 25 U/mL solutions of porcine liver esterase in PBS. [^131I]HIB (1), [^131I]IPH (2), or [^131I]HIB-ether (3) (3.7 MBq each) was also dissolved in PBS with 10% DMSO. Esterase (2.5 U) was then added to each radiotracer solution, and the solution was gently shaken at 37° C.
With these hypotheses in mind, we performed systematic mechanistic studies. First, we carried out an esterase enzymatic assay. All three radiotracers, [^131I]HIB, [^131I]IPH, and [^131I]HIB-ether, were incubated separately with esterase (Sigma Aldrich, St. Louis, MO, USA) at 37° C. in a 10% DMSO/PBS mixture, and the progress of the reactions was monitored for 24 h by radio-TLC (FIG. 3A).

[2] = In vitro metabolism with mouse liver S9 fraction; format: in vitro ADME; details: 4 h incubation
Procedure: (§1) For the in vitro metabolic studies with mouse liver S9 fraction and microsome, 1-3 (3.7 MBq) were dissolved in PBS with 10% DMSO and mixed with the mouse liver S9 fraction (0.2 mg in 10 μL) or the microsome (0.2 mg in 10 μL) with NADPH (0.25 mM). The reaction was performed upon shaking at 550 rpm at 37° C. The hydrolysis rate of each radiotracer was measured by radio-TLC for up to 24 h.

[3] = In vitro metabolism with mouse liver microsome; format: in vitro ADME; details: 4 h incubation
Procedure: as §1

[4] = Ex vivo cleavage in liver homogenate
Procedure: Ex vivo studies to determine the cleavage rates of the examined radiotracers in different organs were performed using the homogenates of mouse tissues collected from CT26 tumor models. Liver, spleen, and tumor tissues were collected and weighted. After the addition of ice-cold PBS solution at a ratio of 1:1 (w/w), the tissues were homogenized with a homogenizer (Ultra-Turrax, IKA, Selangor, Malaysia) under ice-cold conditions. The crude homogenate was then centrifuged at 2,000 g, and the sediment was discarded. Each supernatant (300 μL), referred to as tissue homogenate, was immediately mixed with each radiotracer (3.7 MBq) dissolved in PBS with 10% DMSO. The reaction was then performed upon shaking at 550 rpm at 37° C., and the hydrolysis rate of each radiotracer was measured by radio-TLC for up to 24 h. […] Urine and fecal samples were collected separately at 0.5, 1, 2, 4, 8, 16, and 24 h post-injection, and their radioactivity was measured with a dose calibrator (CRC-Ultra; Capintec, Florham Park, NJ, USA). […] The same urine sample was further analyzed by HPLC [Luna C8 column (4.6×50 mm, 5 μm), 0.1% TFA/H2O (solventA), and 0.1% TFA/acetonitrile (solvent B)] using a gradient of 10-100% B in 5 min and 10% B for 27 min, which continued for up to 45 min at a flow rate of 1 mL/min.

[5] = Lipophilicity (log P) of the radiotracer; format: physicochemical
[6] = Ex vivo cleavage in spleen homogenate; format: in vitro ADME, mouse; details: 4 h and 24 h
Text: Liver, spleen, and tumor tissues were collected and weighted.

[7] = tested on: normal BALB/c mice; experiment: Urinary and fecal excretion of radioactive metabolites; format: in vivo, mouse
[8] = tested on: orthotopic PANC-1/Luc+ pancreatic tumor BALB/c nude mice; experiment: PET/CT imaging of orthotopic pancreatic tumor model; format: in vivo; details: L4 at 24 h post-injection; FDG at 1 h post-injection, same mouse
Procedure: The establishment of the tumor in the orthotopic pancreatic tumor models was confirmed at 13 days post-inoculation of PANC-1/Luc+ cells into the pancreas tail with bioluminescence imaging using D-luciferin (60 mg/kg). The next day, [^18F]FDG-PET/CT (FDG: fluorodeoxyglucose) imaging was performed at 1 h post-injection (7.4 MBq/mouse) for 20 min.
Two days after [^18F]FDG imaging, [^124I]L4 (6.3-9.3 MBq in 200 μL PBS) was administered into the tail vein of the same mouse and PET/CT images were acquired at 1, 4, and 24 h post-injection.

Row | Compound | cleavage percentage ([1]; 4 h) | cleavage percentage ([1]; 24 h) | cleavage percentage [2] | cleavage percentage [3] | cleavage ([4]; 4 h) | cleavage ([4]; 24 h) | log P [5] | cleavage rate lower than in the liver [6] | radioactivity in the feces relative to that in urine ([7]; after i.v. [131I]HIB-liposome) | metabolite found in urine ([7]; urine 3 h post-injection, radio-TLC and HPLC) | tumor detection in PET image [8]
1 | CCCCCCCCCCCCCCCCOc1ccc(I)cc1 [[^131I]HIB-ether, 1-(hexadecyloxy)-4-[^124/131I]iodobenzene] | 15.9% | 20.3% | 19.3% | 16.0% | 23% | 25% | – | – | – | – | –
2 | CCCCCCCCCCCCCCCCOC(=O)c1ccc([131I])cc1 [[^131I]HIB] | – | – | 89.7% | 85.3% | ~75% | ~88% | 2.19±0.04 | ~18% | less than 5% | 4-[^131I]iodobenzoic acid | –
3 | CCCCCCCCCCCCCCCCC(=O)Oc1ccc([131I])cc1 [[^131I]IPH, 4-[^124/131I]iodophenyl heptadecanoate] | – | – | 91.3% | 87.3% | ~75% | ~88% | – | ~18% | – | – | –
4 | fluorodeoxyglucose [[^18F]FDG] | – | – | – | – | – | – | – | – | – | – | the tumor could barely be detected
